#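 Compound exposure: 48 hours, 5 concentrations, 96-well plates. At the GI50, growth is halved. TGI is the concentration that stops growth completely.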
# Tests used:
# Experiment in all cases: DTP human tumour cell line panel, 48 h
# A498 renal = system: A498 renal
# ACHN renal = system: ACHN renal
# CAKI-1 renal = system: CAKI-1 renal
# COLO 205 colon = system: COLO 205 colon
# DU-145 prostate = system: DU-145 prostate
# HCT-15 colon = system: HCT-15 colon
# HOP-62 NSCLC = system: HOP-62 NSCLC
# HOP-92 NSCLC = system: HOP-92 NSCLC
# IGROV1 ovarian = system: IGROV1 ovarian
# KM12 colon = system: KM12 colon
# MDA-MB-231 breast = system: MDA-MB-231 breast
# MDA-MB-435 = system: MDA-MB-435
# MDA-N = system: MDA-N
# NCI-H226 lung = system: NCI-H226 lung
# NCI-H23 lung = system: NCI-H23 lung
# NCI-H460 lung = system: NCI-H460 lung
# NCI-H522 lung = system: NCI-H522 lung
# NCI/ADR-RES ovarian = system: NCI/ADR-RES ovarian
# OVCAR-3 ovarian = system: OVCAR-3 ovarian
# OVCAR-4 ovarian = system: OVCAR-4 ovarian
# OVCAR-5 ovarian = system: OVCAR-5 ovarian
# OVCAR-8 ovarian = system: OVCAR-8 ovarian
# PC-3 prostate = system: PC-3 prostate
# SF-295 CNS = system: SF-295 CNS
# SF-539 CNS = system: SF-539 CNS
# SK-MEL-28 melanoma = system: SK-MEL-28 melanoma
# SK-MEL-5 melanoma = system: SK-MEL-5 melanoma
# SK-OV-3 ovarian = system: SK-OV-3 ovarian
# SNB-75 CNS = system: SNB-75 CNS
# SW-620 colon = system: SW-620 colon
# T-47D breast = system: T-47D breast
# TK-10 renal = system: TK-10 renal
# UACC-257 melanoma = system: UACC-257 melanoma
# UACC-62 melanoma = system: UACC-62 melanoma
# UO-31 renal = system: UO-31 renal
# 786-0 renal = system: 786-0 renal
# A549 NSCLC = system: A549 NSCLC
# BT-549 breast = system: BT-549 breast
# CCRF-CEM leukemia = system: CCRF-CEM leukemia
# EKVX NSCLC = system: EKVX NSCLC
# HCC-2998 colon = system: HCC-2998 colon
# HCT-116 colon = system: HCT-116 colon
# HL-60(TB) leukemia = system: HL-60(TB) leukemia
# HS 578T breast = system: HS 578T breast
# HT29 colon = system: HT29 colon
# LOX IMVI melanoma = system: LOX IMVI melanoma
# M14 melanoma = system: M14 melanoma
# MALME-3M melanoma = system: MALME-3M melanoma
# MCF7 breast = system: MCF7 breast
# MOLT-4 leukemia = system: MOLT-4 leukemia
# RPMI-8226 leukemia = system: RPMI-8226 leukemia
# RXF 393 renal = system: RXF 393 renal
# SF-268 CNS = system: SF-268 CNS
# SK-MEL-2 melanoma = system: SK-MEL-2 melanoma
# SN12C renal = system: SN12C renal
# SNB-19 CNS = system: SNB-19 CNS
# SR leukemia = system: SR leukemia
# U251 CNS = system: U251 CNS
# K-562 leukemia = system: K-562 leukemia
smiles,measurement,setting,value
NC(N)=N/N=C/c1c(-c2ccc(Cl)cc2)nc2sc(Cl)cn12,TGI,A498 renal,3.17 µM
same,TGI,ACHN renal,> 100 µM
same,TGI,CAKI-1 renal,2.82 µM
same,TGI,COLO 205 colon,2.12 µM
same,TGI,DU-145 prostate,3.37 µM
same,TGI,HCT-15 colon,2.69 µM
same,TGI,HOP-62 NSCLC,3.25 µM
same,TGI,HOP-92 NSCLC,3.17 µM
same,TGI,IGROV1 ovarian,2.04 µM
same,TGI,KM12 colon,2.2 µM
same,TGI,MDA-MB-231 breast,3.29 µM
same,TGI,MDA-MB-435,2.57 µM
same,TGI,MDA-N,3.13 µM
same,TGI,NCI-H226 lung,3.36 µM
same,TGI,NCI-H23 lung,2.48 µM
same,TGI,NCI-H460 lung,3.21 µM
same,TGI,NCI-H522 lung,3.47 µM
same,TGI,NCI/ADR-RES ovarian,3.31 µM
same,TGI,OVCAR-3 ovarian,2.88 µM
same,TGI,OVCAR-4 ovarian,2.18 µM
same,TGI,OVCAR-5 ovarian,3.1 µM
same,TGI,OVCAR-8 ovarian,2.53 µM
same,TGI,PC-3 prostate,> 100 µM
same,TGI,SF-295 CNS,3.18 µM
same,TGI,SF-539 CNS,2.53 µM
same,TGI,SK-MEL-28 melanoma,3.21 µM
same,TGI,SK-MEL-5 melanoma,2.97 µM
same,TGI,SK-OV-3 ovarian,3.34 µM
same,TGI,SNB-75 CNS,2.72 µM
same,TGI,SW-620 colon,2.28 µM
same,TGI,T-47D breast,2.64 µM
same,TGI,TK-10 renal,3.1 µM
same,TGI,UACC-257 melanoma,3.2 µM
same,TGI,UACC-62 melanoma,3.25 µM
same,TGI,UO-31 renal,3.1 µM
CCOC(=O)c1cc2cc(OCc3ccccc3)ccc2[nH]1,GI50,786-0 renal,> 100 µM
same,TGI,786-0 renal,> 100 µM
same,GI50,A498 renal,> 100 µM
same,TGI,A498 renal,> 100 µM
same,GI50,A549 NSCLC,> 100 µM
same,TGI,A549 NSCLC,> 100 µM
same,GI50,ACHN renal,> 100 µM
same,TGI,ACHN renal,> 100 µM
same,GI50,BT-549 breast,> 100 µM
same,TGI,BT-549 breast,> 100 µM
same,GI50,CAKI-1 renal,> 100 µM
same,TGI,CAKI-1 renal,> 100 µM
same,GI50,CCRF-CEM leukemia,> 100 µM
same,TGI,CCRF-CEM leukemia,> 100 µM
same,GI50,COLO 205 colon,> 100 µM
same,TGI,COLO 205 colon,> 100 µM
same,GI50,DU-145 prostate,> 100 µM
same,TGI,DU-145 prostate,> 100 µM
same,GI50,EKVX NSCLC,> 100 µM
same,TGI,EKVX NSCLC,> 100 µM
same,GI50,HCC-2998 colon,> 100 µM
same,TGI,HCC-2998 colon,> 100 µM
same,GI50,HCT-116 colon,> 100 µM
same,TGI,HCT-116 colon,> 100 µM
same,GI50,HCT-15 colon,> 100 µM
same,TGI,HCT-15 colon,> 100 µM
same,GI50,HL-60(TB) leukemia,12.2 µM
same,TGI,HL-60(TB) leukemia,66.7 µM
same,GI50,HOP-62 NSCLC,92.7 µM
same,TGI,HOP-62 NSCLC,> 100 µM
same,GI50,HOP-92 NSCLC,62.3 µM
same,TGI,HOP-92 NSCLC,> 100 µM
same,GI50,HS 578T breast,49.6 µM
same,TGI,HS 578T breast,> 100 µM
same,GI50,HT29 colon,> 100 µM
same,TGI,HT29 colon,> 100 µM
same,GI50,IGROV1 ovarian,> 100 µM
same,TGI,IGROV1 ovarian,> 100 µM
same,GI50,KM12 colon,> 100 µM
same,TGI,KM12 colon,> 100 µM
same,GI50,LOX IMVI melanoma,> 100 µM
same,TGI,LOX IMVI melanoma,> 100 µM
same,GI50,M14 melanoma,> 100 µM
same,TGI,M14 melanoma,> 100 µM
same,GI50,MALME-3M melanoma,> 100 µM
same,TGI,MALME-3M melanoma,> 100 µM
same,GI50,MCF7 breast,> 100 µM
same,TGI,MCF7 breast,> 100 µM
same,GI50,MDA-MB-231 breast,49.2 µM
same,TGI,MDA-MB-231 breast,> 100 µM
same,GI50,MDA-MB-435,> 100 µM
same,TGI,MDA-MB-435,> 100 µM
same,GI50,MOLT-4 leukemia,36.7 µM
same,TGI,MOLT-4 leukemia,> 100 µM
same,GI50,NCI-H226 lung,> 100 µM
same,TGI,NCI-H226 lung,> 100 µM
same,GI50,NCI-H23 lung,> 100 µM
same,TGI,NCI-H23 lung,> 100 µM
same,GI50,NCI-H460 lung,> 100 µM
same,TGI,NCI-H460 lung,> 100 µM
same,GI50,NCI-H522 lung,> 100 µM
same,TGI,NCI-H522 lung,> 100 µM
same,GI50,NCI/ADR-RES ovarian,> 100 µM
same,TGI,NCI/ADR-RES ovarian,> 100 µM
same,GI50,OVCAR-3 ovarian,> 100 µM
same,TGI,OVCAR-3 ovarian,> 100 µM
same,GI50,OVCAR-4 ovarian,> 100 µM
same,TGI,OVCAR-4 ovarian,> 100 µM
same,GI50,OVCAR-5 ovarian,> 100 µM
same,TGI,OVCAR-5 ovarian,> 100 µM
same,GI50,OVCAR-8 ovarian,> 100 µM
same,TGI,OVCAR-8 ovarian,> 100 µM
same,GI50,PC-3 prostate,> 100 µM
same,TGI,PC-3 prostate,> 100 µM
same,GI50,RPMI-8226 leukemia,> 100 µM
same,TGI,RPMI-8226 leukemia,> 100 µM
same,GI50,RXF 393 renal,> 100 µM
same,TGI,RXF 393 renal,> 100 µM
same,GI50,SF-268 CNS,> 100 µM
same,TGI,SF-268 CNS,> 100 µM
same,GI50,SF-295 CNS,> 100 µM
same,TGI,SF-295 CNS,> 100 µM
same,GI50,SF-539 CNS,> 100 µM
same,TGI,SF-539 CNS,> 100 µM
same,GI50,SK-MEL-2 melanoma,> 100 µM
same,TGI,SK-MEL-2 melanoma,> 100 µM
same,GI50,SK-MEL-28 melanoma,> 100 µM
same,TGI,SK-MEL-28 melanoma,> 100 µM
same,GI50,SK-MEL-5 melanoma,> 100 µM
same,TGI,SK-MEL-5 melanoma,> 100 µM
same,GI50,SK-OV-3 ovarian,> 100 µM
same,TGI,SK-OV-3 ovarian,> 100 µM
same,GI50,SN12C renal,> 100 µM
same,TGI,SN12C renal,> 100 µM
same,GI50,SNB-19 CNS,> 100 µM
same,TGI,SNB-19 CNS,> 100 µM
same,GI50,SNB-75 CNS,26 µM
same,TGI,SNB-75 CNS,> 100 µM
same,GI50,SR leukemia,> 100 µM
same,TGI,SR leukemia,> 100 µM
same,GI50,SW-620 colon,> 100 µM
same,TGI,SW-620 colon,> 100 µM
same,GI50,T-47D breast,> 100 µM
same,TGI,T-47D breast,> 100 µM
same,GI50,TK-10 renal,> 100 µM
same,TGI,TK-10 renal,> 100 µM
same,GI50,U251 CNS,> 100 µM
same,TGI,U251 CNS,> 100 µM
same,GI50,UACC-257 melanoma,> 100 µM
same,TGI,UACC-257 melanoma,> 100 µM
same,GI50,UACC-62 melanoma,> 100 µM
same,TGI,UACC-62 melanoma,> 100 µM
same,GI50,UO-31 renal,> 100 µM
same,TGI,UO-31 renal,> 100 µM
CSc1nc(C)c(CCOC(C)=O)c(N=P(c2ccccc2)(c2ccccc2)c2ccccc2)n1,TGI,786-0 renal,> 10 µM
same,TGI,A549 NSCLC,> 10 µM
same,TGI,CAKI-1 renal,> 10 µM
same,TGI,CCRF-CEM leukemia,> 10 µM
same,TGI,DU-145 prostate,> 10 µM
same,TGI,EKVX NSCLC,> 10 µM
same,TGI,HCC-2998 colon,> 10 µM
same,TGI,HCT-15 colon,> 10 µM
same,TGI,HL-60(TB) leukemia,> 10 µM
same,TGI,HOP-62 NSCLC,> 10 µM
same,TGI,HT29 colon,> 10 µM
same,TGI,IGROV1 ovarian,> 10 µM
same,TGI,K-562 leukemia,> 10 µM
same,TGI,KM12 colon,> 10 µM
same,TGI,LOX IMVI melanoma,> 10 µM
same,TGI,M14 melanoma,> 10 µM
same,TGI,MALME-3M melanoma,> 10 µM
same,TGI,MCF7 breast,> 10 µM
same,TGI,MDA-MB-231 breast,> 10 µM
same,TGI,MDA-N,> 10 µM
same,TGI,MOLT-4 leukemia,6.43 µM
same,TGI,NCI-H23 lung,> 10 µM
same,TGI,OVCAR-8 ovarian,> 10 µM
same,TGI,PC-3 prostate,9.37 µM
same,TGI,RPMI-8226 leukemia,> 10 µM
same,TGI,RXF 393 renal,> 10 µM
same,TGI,SF-268 CNS,> 10 µM
same,TGI,SF-295 CNS,> 10 µM
same,TGI,SK-MEL-28 melanoma,> 10 µM
same,TGI,SK-MEL-5 melanoma,> 10 µM
same,TGI,SK-OV-3 ovarian,> 10 µM
same,TGI,SN12C renal,> 10 µM
same,TGI,SNB-75 CNS,> 10 µM
same,TGI,SR leukemia,7.83 µM
same,TGI,SW-620 colon,> 10 µM
same,TGI,T-47D breast,> 10 µM
same,TGI,TK-10 renal,> 10 µM
same,TGI,UACC-257 melanoma,> 10 µM
same,TGI,UACC-62 melanoma,> 10 µM

# Reference: PubChem BioAssay (NCI)
